Assays:
Type in all cases: binding
Or10a [1] = molecular target: T1, Or10a (Drosophila melanogaster, UniProt Q9VYZ1); assay: CNT-FET sensor covalently functionalized with OR10a nanodiscs (Example 3); details: for current response: increasing additions of ligand
T1 sequence (Q9VYZ1 1-406): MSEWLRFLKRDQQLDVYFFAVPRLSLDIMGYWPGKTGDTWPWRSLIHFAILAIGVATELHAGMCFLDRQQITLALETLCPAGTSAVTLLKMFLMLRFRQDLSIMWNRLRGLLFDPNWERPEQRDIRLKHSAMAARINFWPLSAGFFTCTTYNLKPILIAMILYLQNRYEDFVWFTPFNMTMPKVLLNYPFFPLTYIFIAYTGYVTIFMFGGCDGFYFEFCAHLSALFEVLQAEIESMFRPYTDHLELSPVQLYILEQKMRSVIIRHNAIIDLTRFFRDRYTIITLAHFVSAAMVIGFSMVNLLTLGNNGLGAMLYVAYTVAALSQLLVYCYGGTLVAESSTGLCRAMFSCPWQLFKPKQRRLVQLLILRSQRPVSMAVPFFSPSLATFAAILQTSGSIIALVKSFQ
Protocol: The dispersion was sonicated until a clear solution was obtained. The temperature was kept at 25° C. throughout the sonication process. The thiolpyridine solution was prepared by dissolving 10 mg of 2-Mercaptopyridine (99%, Sigma Aldrich) in 1 ml of methanol. The solution was spun coated on a polydimethylsiloxane (PDMS) surface at 2000 rpm for one minute. Before the spin coating process, the PDMS surface was cleaned by a 50 W Oxygen plasma for 1 minute to improve the wettability. The cleaned substrates were placed upside down on the PDMS surface for three minutes and washed in ethanol to remove the excess thiolpyridine molecules. Then the substrates were transferred into the CNT suspension and immersed into the suspension for 10 minutes. The samples were removed from the suspension and dipped into Ethanol for another 10 minutes to remove the thiolpyridine molecules in the SWNT network. The alignment markers were deposited by defining the markers by photolithography and thermal evaporation of 5 nm Chromium and 50 nm of Gold. The metal Lift off was done by acetone immersion for 15 minutes followed by an Isopropyl alcohol (IPA) wash and N2 blow dry. The result is a uniform thin film CNT network covering the entire substrate surface. The purification procedure is a variation on the one detailed in […] et al. 2013^14. […] The cell pellet was collected by centrifugation at 3800 g for 10 min at room temperature and then resuspended in 40 mL of resuspension buffer A (20 mM Tris/HCl pH 7.5, 100 mM NaCl, 1× protease inhibitor cocktail (Roche Diagnostics GmbH, Germany)), with 25 U/mL Benzonase, then lysed by two passes on an Emulsiflex C5 emulsifier (Avestin, Germany) at 10,000-15,000 psi. The sample was then centrifuged at 1000 g for 5 min to remove whole cells and nuclei. The supernatant was removed and spun at 100,000 g for 1 h at 4° C. The membrane pellet was resuspended in 40 mL of buffer A with 1% w/v detergent (Zwittergent 3-16) and rotated for 1 h at room temperature at 10 rpm. The sample was then centrifuged at 100,000 g for 1 h at 18° C. The supernatant was removed and loaded onto a 1 mL NiNTA column (GE Healthcare) where the zwittergent 3-16 detergent was exchanged to Fos-Choline 14 (FC-14). The column was washed in ten column volumes of buffer B (20 mM Tris/HCl pH 7.5, 3.6 mM FC-14) with 300 mM NaCl and 20 mM imidazole, and a further ten column volumes of buffer B with 100 mM NaCl and 50 mM imidazole. Protein was eluted with four column volumes buffer B with 100 mM NaCl and 500 mM imidazole. Purity was assessed on Coomassie stained SDS-PAGE gels and Western blotting. Purification was completed with a final size exclusion chromatography (SEC) step. […]

Or22a = molecular target: T2, Or22a (Drosophila melanogaster, UniProt P81909); assay: EIS sensor, Or22a nanodiscs on gold electrode (Example 4)
T2 sequence (P81909 1-397): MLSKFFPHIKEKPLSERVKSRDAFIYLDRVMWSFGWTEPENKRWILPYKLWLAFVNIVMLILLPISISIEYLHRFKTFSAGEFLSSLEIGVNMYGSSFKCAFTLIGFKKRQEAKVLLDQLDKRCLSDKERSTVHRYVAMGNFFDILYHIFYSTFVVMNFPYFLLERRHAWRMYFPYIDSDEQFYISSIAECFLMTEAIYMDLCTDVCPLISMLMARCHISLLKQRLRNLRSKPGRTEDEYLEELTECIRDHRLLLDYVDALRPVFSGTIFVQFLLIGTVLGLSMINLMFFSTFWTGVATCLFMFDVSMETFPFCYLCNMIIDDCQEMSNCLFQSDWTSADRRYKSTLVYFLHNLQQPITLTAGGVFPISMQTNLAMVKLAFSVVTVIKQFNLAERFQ

Or10a [2] = molecular target: T1, Or10a; assay: EIS sensor, Or10a liposomes on gold electrode, optimized conditions (Example 5)

limit of detection (Or10a [1]; nanodiscs 1:100 dilution)	concentration at which clear electronic response starts (Or10a [1]; real time current measurement mode) [fM]	LOD (Or10a [2]; EIS) [pM]	SMILES	current response (Or10a [1]; nanodiscs 1:100 dilution)	EIS response to control ligand (Or22a)	EIS response to control ligand (Or10a [2])	LOD (Or22a; EIS) [pM]
–	–	–	CCC/C=C/C=O [E2-hexenal]	no response	do not respond	–	–
–	–	–	CCCCCC(=O)OC [methyl hexanoate]	–	–	do not respond	< 100
below 1 fM	1	1	COC(=O)c1ccccc1O [methyl salicylate]	consistently large decreases	–	–	–

— patent US12044651B2, “Sensor device and methods” (SCENTIAN BIO LIMITED, priority 2016, dated 2024)
